Measurements taken from patent publication US9980943B2, “Methods of treating muscular dystrophy” (BOARD OF REGENTS OF THE NEVADA SYSTEM OF HIGHER EDUCATION, …, priority 2013, dated 2018).

Columns and labels:
Type in all cases: cell-based, mouse
[1] = tested on: α7 integrin (LacZ reporter in α7βgal+/− myoblasts); experiment: Myoblast α7+/LacZ integrin FDG assay (Burkin assay in myoblasts, 96-well); settings: α7+/LacZ myoblasts, 96-well
[2] = tested on: α7 integrin (LacZ reporter in α7+/LacZ myotubes); experiment: Myotube α7 integrin FDG assay (Burkin assay in myotubes, 96-well); settings: myotubes
[3] = tested on: β-galactosidase in CMV-LacZ C2C12 myoblasts; experiment: CMV-LacZ secondary screen in C2C12 myoblasts (β-Gal stabilizing assay); settings: CMV-LacZ C2C12 myoblasts
Procedure, shortened: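 Stable CMV-LacZ C2C12 clone; six-point curve 0.5–40 μM; duplicates.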

[4] = tested on: β-galactosidase in CMV-LacZ C2C12 myotubes; experiment: CMV-LacZ secondary screen in C2C12 myotubes (β-Gal stabilizing assay); settings: C2C12 CMV-LacZ myotubes, fold relative to DMSO
Procedure, shortened: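 A secondary screen identifies compounds that stabilize β-gal independently of the native promoter, using CMV-LacZ C2C12 cells. Curves span 0.5–40 μM at six levels, in duplicate.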

SMILES	Burkin Assay in Myoblasts, signal relative to DMSO ([1]; 0.5 uM)	Burkin Assay in Myoblasts, signal relative to DMSO ([1]; 1 uM)	Burkin Assay in Myoblasts, signal relative to DMSO ([1]; 5 uM)	Burkin Assay in Myoblasts, signal relative to DMSO ([1]; 10 uM)	Burkin Assay in Myoblasts, signal relative to DMSO ([1]; 20 uM)	Burkin Assay in Myoblasts, signal relative to DMSO ([1]; 40 uM)	Burkin Assay in Myotubes, α7 integrin LacZ reporter signal relative to DMSO ([2]; 0.5 uM)	Burkin Assay in Myotubes, α7 integrin LacZ reporter signal relative to DMSO ([2]; 1 uM)	Burkin Assay in Myotubes, α7 integrin LacZ reporter signal relative to DMSO ([2]; 5 uM)	Burkin Assay in Myotubes, α7 integrin LacZ reporter signal relative to DMSO ([2]; 10 uM)	Burkin Assay in Myotubes, α7 integrin LacZ reporter signal relative to DMSO ([2]; 20 uM)	Burkin Assay in Myotubes, α7 integrin LacZ reporter signal relative to DMSO ([2]; 40 uM)	CMV-LACZ in Myoblasts (β-galactosidase activity relative to DMSO) ([3]; 0.5 uM)	CMV-LACZ in Myoblasts (β-galactosidase activity relative to DMSO) ([3]; 1 uM)	CMV-LACZ in Myoblasts (β-galactosidase activity relative to DMSO) ([3]; 5 uM)	CMV-LACZ in Myoblasts (β-galactosidase activity relative to DMSO) ([3]; 10 uM)	CMV-LACZ in Myoblasts (β-galactosidase activity relative to DMSO) ([3]; 20 uM)	CMV-LACZ in Myoblasts (β-galactosidase activity relative to DMSO) ([3]; 40 uM)	CMV-LACZ in Myotubes, signal relative to DMSO ([4]; 0.5 uM)	CMV-LACZ in Myotubes, signal relative to DMSO ([4]; 1 uM)	further results
CCCn1c(-c2cc(OC)c(OC)c(OC)c2)nc2c1c(=O)[nH]c(=O)n2Cc1ccccc1 [MLS001174740-01]	1.221	1.193	0.8512	1.181	0.9658	0.5414	0.9078	0.8687	0.8574	0.9017	0.7823	0.7064	1.2750	0.9721	1.0046	0.9490	0.4293	0.4578	0.8533	0.9267	CMV-LACZ in Myotubes, signal relative to DMSO ([4]; 5 uM): 0.9101; CMV-LACZ in Myotubes, signal relative to DMSO ([4]; 10 uM): 1.0520; CMV-LACZ in Myotubes, signal relative to DMSO ([4]; 20 uM): 1.0568; CMV-LACZ in Myotubes, signal relative to DMSO ([4]; 40 uM): 0.8863
O=C(N[C@@H](Cc1c[nH]c2ccccc12)C(=O)O)C1CCN(S(=O)(=O)c2cccs2)CC1 [MLS001175021-01]	0.92	0.9803	0.8806	0.906	0.9747	0.9575	1.061	1.0167	1.051	0.9913	0.9799	0.8788	1.1772	1.0729	0.9282	0.9395	1.1070	1.0907	1.0611	0.9621	CMV-LACZ in Myotubes, signal relative to DMSO ([4]; 5 uM): 0.9049; CMV-LACZ in Myotubes, signal relative to DMSO ([4]; 10 uM): 0.7979; CMV-LACZ in Myotubes, signal relative to DMSO ([4]; 20 uM): 1.1378; CMV-LACZ in Myotubes, signal relative to DMSO ([4]; 40 uM): 0.9733
Cc1cccc(C)c1NCC(=O)N1CCN(Cc2ccccc2)CC1.Cl [MLS001176153-01]	1.06	1.045	0.9185	0.8767	1.145	1.12	1.007	1.027	0.9538	1.106	0.9238	0.9818	1.2729	1.4588	0.8976	0.9140	0.9322	1.0763	0.8316	0.9832	CMV-LACZ in Myotubes, signal relative to DMSO ([4]; 5 uM): 0.7944; CMV-LACZ in Myotubes, signal relative to DMSO ([4]; 10 uM): 0.9388; CMV-LACZ in Myotubes, signal relative to DMSO ([4]; 20 uM): 1.0256; CMV-LACZ in Myotubes, signal relative to DMSO ([4]; 40 uM): 1.0878
